The target in assay [1] is T1, ERK1 (Homo sapiens, UniProt P27361).
T1 construct: purchased Jubilant Biosys
The assay can be described thus: ERK1 HTRF (biochemical) assay. On the procedure: ERK1 and ERK2 HTRF (Biochemical) Assays
These assays employed a homogeneous time resolved fluorescence (HTRF) technique. […] The plate was incubated at room temperature for 60 min with shaking. […] The IC50 values (half maximal inhibitory concentration values) were subsequently determined using a sigmoidal dose-response curve (variable slope) in GraphPad Prism® 5 software.

The target in assay [2] is T2, ERK2 (Homo sapiens, UniProt P28482).
T2 construct: purchased Jubilant Biosys
The assay can be described thus: ERK2 HTRF (biochemical) assay. In outline: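 Compounds were tested as half-log dilutions from 0.0005 to 10 uM in Tris pH 7.5/MgCl2 buffer, with a substrate mix of 1 uM biotin-MBP peptide and 24 uM ATP and an enzyme mix of 25 nM ERK2. Reaction ran 60 min at room temperature. Phospho-MBP was detected by HTRF (Eu-anti-phospho-MBP/SA-APC, 665/620 nm), and IC50 was fitted with a variable-slope sigmoidal curve.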
For orientation: In TR-FRET formats the signal depends on donor and acceptor labels being close together.

A value given as a limit tells only on which side of the number the result lay.

As usually defined, the IC50 is the concentration that gives 50% inhibition.

T1 sequence (P27361 whole entry): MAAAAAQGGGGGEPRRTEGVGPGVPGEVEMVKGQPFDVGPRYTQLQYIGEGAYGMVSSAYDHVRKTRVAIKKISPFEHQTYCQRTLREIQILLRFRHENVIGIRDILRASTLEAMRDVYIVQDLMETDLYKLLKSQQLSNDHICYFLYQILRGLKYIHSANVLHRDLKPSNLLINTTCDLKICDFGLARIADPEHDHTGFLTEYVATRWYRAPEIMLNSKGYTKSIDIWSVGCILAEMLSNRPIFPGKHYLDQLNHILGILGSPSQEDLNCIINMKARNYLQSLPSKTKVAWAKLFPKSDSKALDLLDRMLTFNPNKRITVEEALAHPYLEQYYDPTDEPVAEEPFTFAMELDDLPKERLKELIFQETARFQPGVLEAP
T2 sequence (P28482 whole entry): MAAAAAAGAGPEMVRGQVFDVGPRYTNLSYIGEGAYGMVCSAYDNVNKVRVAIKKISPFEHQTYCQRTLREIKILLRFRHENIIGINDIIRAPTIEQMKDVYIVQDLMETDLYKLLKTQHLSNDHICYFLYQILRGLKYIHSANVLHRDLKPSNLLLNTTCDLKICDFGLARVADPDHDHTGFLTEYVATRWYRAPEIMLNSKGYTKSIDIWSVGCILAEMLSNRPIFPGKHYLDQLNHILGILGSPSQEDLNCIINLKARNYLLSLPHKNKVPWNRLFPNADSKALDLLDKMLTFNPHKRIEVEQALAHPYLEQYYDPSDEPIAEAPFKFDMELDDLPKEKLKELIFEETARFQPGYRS

In the case of `Cc1cnc(N[C@@H]2CCOC2)nc1-n1cnc(C(=O)NCc2cccc(Cl)c2CO)c1` [Example 344, (R)-N-(3-chloro-2-(hydroxymethyl)-benzyl)-1-(5-methyl-2-((tetrahydrofuran-3-yl)amino)-pyrimidin-4-yl)-1H-imidazole-4-carboxamide], the IC50 in assay [1] (HTRF biochemical assay) was < 50 nM; in assay [2] (HTRF biochemical assay), ≤ 50 nM.

For the compound `O=C(NC(CO)c1cccc(Cl)c1)c1cn(-c2ccnc(Nc3ccc4c(c3)CCO4)c2)cn1` (centres unmarked) [Compound 163, N-(1-(3-chlorophenyl)-2-hydroxyethyl)-1-(2-((2,3-dihydrobenzofuran-5-yl)amino)pyridin-4-yl)-1H-imidazole-4-carboxamide], the IC50 was < 50 nM in assay [1] (HTRF) and ≤ 50 nM in assay [2] (HTRF).

With `Cc1cnc(Nc2ccc3c(c2)OC(F)(F)O3)nc1-n1ccc(C(=O)N[C@H](CO)c2ccc(F)c(Cl)c2)c1` [Compound 69, (S)-N-(1-(3-chloro-4-fluorophenyl)-2-hydroxyethyl)-1-(2-((2,2-difluoro-benzo[d][1,3]dioxol-5-yl)amino)-5-methylpyrimidin-4-yl)-1H-pyrrole-3-carboxamide], the IC50 is < 50 nM in assay [1] (HTRF) and ≤ 50 nM in assay [2] (HTRF).

Consider `COc1cc(C(=O)N2CCOCC2)c(F)cc1Nc1ncc(C)c(-n2ccc(C(=O)NC(CO)c3cccc(Cl)c3)c2)n1` (centres unmarked) [Compound 181, N-(1-(3-chlorophenyl)-2-hydroxyethyl)-1-(2-((5-fluoro-2-methoxy-4-(morpholine-4-carbonyl)phenyl)amino)-5-methyl-pyrimidin-4-yl)-1H-pyrrole-3-carboxamide], for which the IC50 was < 50 nM in assay [1] (HTRF) and ≤ 50 nM in assay [2] (HTRF).

Take `Cc1cnc(Nc2ccc(C3CCNCC3)c(F)c2)nc1-n1ccc(C(=O)NC(CO)c2cccc(Cl)c2)c1` (centres unmarked) [Compound 216, N-(1-(3-chlorophenyl)-2-hydroxyethyl)-1-(2-((3-fluoro-4-(piperidin-4-yl)phenyl)amino)-5-methylpyrimidin-4-yl)-1H-pyrrole-3-carboxamide]: the IC50 was < 50 nM in assay [1] (HTRF) and ≤ 50 nM in assay [2] (HTRF).

With `Cc1cnc(NC2CCOC2)cc1-n1ccc(C(=O)NC(CO)c2cccc(Cl)c2)c1` (centres unmarked) [Compound 165, N-(1-(3-chloro-phenyl)-2-hydroxyethyl)-1-(5-methyl-2-((tetrahydrofuran-3-yl)amino)pyridin-4-yl)-1H-pyrrole-3-carboxamide], the IC50 is < 50 nM in assay [1] (HTRF) and ≤ 50 nM in assay [2] (HTRF).

With `Cc1cnc(NC2CCOCC2)nc1-n1cnc(C(=O)NCc2ccccc2CN)c1` [Example 283, N-(2-(amino-methyl)benzyl)-1-(5-methyl-2-((tetrahydro-2H-pyran-4-yl)amino)-pyrimidin-4-yl)-1H-imidazole-4-carbox amide], the 50% inhibitory concentration (IC50) in assay [1] (HTRF) is < 50 nM; in assay [2] (HTRF) it was ≤ 50 nM.

In the case of `CCC(COC)Nc1ncc(C)c(-n2ccc(C(=O)NC(CO)c3cccc(Cl)c3)c2)n1` (centres unmarked) [Compound 127, N-(1-(3-chloro-phenyl)-2-hydroxy-ethyl)-1-(2-((1-methoxybutan-2-yl)amino)-5-methylpyrimidin-4-yl)-1H-pyrrole-3-carboxamide], the IC50 in assay [1] (HTRF) is < 50 nM; in assay [2] (HTRF), ≤ 50 nM.

In the case of `Cc1cnc(NC2CCOCC2)nc1-n1cnc(C(=O)NCc2ccccc2CO)c1` [Example 287, N-(2-(hydroxy-methyl)benzyl)-1-(5-methyl-2-((tetrahydro-2H-pyran-4-yl)amino)-pyrimidin-4-yl)-1H-imidazole-4-carboxamide], the values for the IC50 in assay [1] (HTRF) and in assay [2] (HTRF) were < 50 nM and ≤ 50 nM, respectively.

With `Cc1cnc(Nc2ccc3c(c2)OCO3)nc1-n1cc(NC(=O)N[C@@H](CO)c2cccc(Cl)c2)cn1` [Compound 51, (R)-1-(1-(2-(benzo[d][1,3]dioxol-5-ylamino)-5-methylpyrimidin-4-yl)-1H-pyrazol-4-yl)-3-(1-(3-chloro-phenyl)-2-hydroxy-ethyl)urea], the IC50 lay within 100 to 500 nM in assay [1] (HTRF) and 50 to 100 nM in assay [2] (HTRF).

Regarding `Cc1cnc(NC2CCOc3ccccc32)nc1-n1cnc(C(=O)N[C@H](CO)c2cccc(Cl)c2)c1` (stereo partly drawn) [Compound 247, N-((S)-1-(3-chlorophenyl)-2-hydroxyethyl)-1-(2-(chroman-4-ylamino)-5-methylpyrimidin-4-yl)-1H-imidazole-4-carboxamide], the IC50 was < 50 nM in assay [1] (HTRF) and ≤ 50 nM in assay [2] (HTRF).

As to `Cc1cnc(N[C@H]2CC[C@H](O)CC2)nc1-n1cnc(C(=O)N[C@H](CO)c2cccc(Cl)c2)c1` [Compound 242, N-((S)-1-(3-chlorophenyl)-2-hydroxyethyl)-1-(2-(((1r,4S)-4-hydroxycyclohexyl)amino)-5-methyl-pyrimidin-4-yl)-1H-imidazole-4-carboxamide], the IC50 is < 50 nM in assay [1] (HTRF) and ≤ 50 nM in assay [2] (HTRF).

Turning to `CC[C@@H](CO)Nc1ncc(C)c(-n2ccc(C(=O)NC(CO)c3cccc(Cl)c3)c2)n1` (stereo partly drawn) [Compound 146, N-(1-(3-chloro-phenyl)-2-hydroxy-ethyl)-1-(2-(((S)-1-hydroxybutan-2-yl)amino)-5-methylpyrimidin-4-yl)-1H-pyrrole-3-carboxamide], the IC50 in assay [1] (HTRF) was < 50 nM; in assay [2] (HTRF), ≤ 50 nM.

For the compound `Cc1cnc(Nc2ccc3c(c2)OCO3)nc1-n1ccc(C(=O)NC(CO)c2ccc(F)cc2)c1` (centres unmarked) [Compound 172, 1-(2-(benzo[d][1,3]dioxol-5-ylamino)-5-methylpyrimidin-4-yl)-N-(1-(4-fluorophenyl)-2-hydroxyethyl)-1H-pyrrole-3-carboxamide], the IC50 is < 50 nM in assay [1] (HTRF) and ≤ 50 nM in assay [2] (HTRF).

On to `Cc1cnc(NC2CCOC2)nc1-n1ccc(C(=O)NC(CO)c2ccccc2)c1` (centres unmarked) [Compound 128, N-(2-hydroxy-1-phenylethyl)-1-(5-methyl-2-((tetrahydrofuran-3-yl)amino)pyrimidin-4-yl)-1H-pyrrole-3-carboxamide], for which the IC50 in assay [1] (HTRF) is < 50 nM; in assay [2] (HTRF) it was ≤ 50 nM.

Regarding `Cc1cnc(NC2CCC(F)(F)CC2)nc1-n1cnc(C(=O)N[C@H](CO)c2cccc(Cl)c2)c1` [Compound 240, (S)-N-(1-(3-chlorophenyl)-2-hydroxyethyl)-1-(2-((4,4-difluorocyclo-hexyl)amino)-5-methylpyrimidin-4-yl)-1H-imidazole-4-carboxamide], the IC50 in assay [1] (HTRF) is < 50 nM; in assay [2] (HTRF), ≤ 50 nM.

With `O=C(Nc1cnn(-c2ccnc(NC3CC3)n2)c1)N[C@H](CO)c1cccc(Cl)c1` [Compound 6, (S)-1-(1-(3-chlorophenyl)-2-hydroxyethyl)-3-(1-(2-(cyclopropyl-amino)pyrimidin-4-yl)-1H-pyrazol-4-yl)urea], the IC50 was < 50 nM in assay [1] (HTRF) and ≤ 50 nM in assay [2] (HTRF).

`Cc1cnc(NC2CCOCC2)nc1-n1cnc(C(=O)NCc2ccc(Cl)cc2CO)c1` [Example 343, N-(4-chloro-2-hydroxymethyl-benzyl)-1-(5-methyl-2-((tetrahydro-2H-pyran-4-yl)amino)-pyrimidin-4-yl)-1H-imidazole-4-carboxamide]: the IC50 was < 50 nM in assay [1] (HTRF biochemical assay) and ≤ 50 nM in assay [2] (HTRF biochemical assay).

For the compound `Cc1cnc(NC2CCCCC2O)nc1-n1ccc(C(=O)NC(CO)c2ccc(F)c(Cl)c2)c1` (centres unmarked) [Compound 202, N-(1-(3-chloro-4-fluorophenyl)-2-hydroxyethyl)-1-(2-((2-hydroxy-cyclohexyl)amino)-5-methylpyrimidin-4-yl)-1H-pyrrole-3-carboxamide], the IC50 in assay [1] (HTRF) and in assay [2] (HTRF) was 50 to 100 nM in each case.

Take `Cc1cnc(Nc2ccc(F)cc2Cl)nc1-n1ccc(C(=O)NC(CO)c2ccccc2)c1` (centres unmarked) [Compound 32, 1-(2-((2-chloro-4-fluorophenyl)amino)-5-methyl-pyrimidin-4-yl)-N-(2-hydroxy-1-phenylethyl)-1H-pyrrole-3-carboxamide]: the values for the IC50 in assay [1] (HTRF) and in assay [2] (HTRF) were < 50 nM and ≤ 50 nM, respectively.

For `CNC[C@@H](NC(=O)c1cn(-c2nc(NC3CCOCC3)ncc2C)cn1)c1cccc(Cl)c1` [Example 326, (S)-N-(1-(3-chlorophenyl)-2-(methylamino)ethyl)-1-(5-methyl-2-((tetrahydro-2H-pyran-4-yl)amino)-pyrimidin-4-yl)-1H-imidazole-4-carboxamide], the IC50 in assay [1] (HTRF biochemical assay) was < 50 nM; in assay [2] (HTRF biochemical assay) it was ≤ 50 nM.

Regarding `Cc1cnc(NC2CCOC2)nc1-n1ccc(C(=O)NC(CO)c2cccc(Cl)c2)c1` (centres unmarked) [Compound 123, N-(1-(3-chlorophenyl)-2-hydroxyethyl)-1-(5-methyl-2-((tetrahydrofuran-3-yl)amino)pyrimidin-4-yl)-1H-pyrrole-3-carboxamide], the figures for the IC50 in assay [1] (HTRF) and in assay [2] (HTRF) were < 50 nM and ≤ 50 nM, respectively.

Consider `O=C(N[C@H](CO)c1cccc(Cl)c1)c1cn(-c2ccnc(NC3CCOC3)c2)cn1` (stereo partly drawn) [Compound 170, N-((S)-1-(3-chlorophenyl)-2-hydroxyethyl)-1-(2-((tetrahydrofuran-3-yl)amino)pyridin-4-yl)-1H-imidazole-4-carboxamide], for which the IC50 in assay [1] (HTRF) was < 50 nM; in assay [2] (HTRF), ≤ 50 nM.

Consider `Cc1cnc(NC2CCOCC2)nc1-n1cnc(C(=O)NC(CN)c2ccc(Cl)s2)c1` (single isomer, unassigned; enantiomer #1) [Example 290, N-(2-amino-1-(5-chlorothiophen-2-yl)ethyl)-1-(5-methyl-2-((tetrahydro-2H-pyran-4-yl)amino)-pyrimidin-4-yl)-1H-imidazole-4-carboxamide (enantiomer #1)], for which the values for the IC50 in assay [1] (HTRF) and in assay [2] (HTRF) were < 50 nM and ≤ 50 nM, respectively.

`CC(=O)NCC(NC(=O)c1ccn(-c2nc(Nc3ccc4c(c3)OC(F)(F)O4)ncc2C)c1)c1cccc(Cl)c1` (centres unmarked) [Compound 158, N-(2-acetamido-1-(3-chlorophenyl)-ethyl)-1-(2-((2,2-difluorobenzo[d] [1,3]dioxol-5-yl)-amino)-5-methyl-pyrimidin-4-yl)-1H-pyrrole-3-carboxamide]: the IC50 in assay [1] (HTRF) lay within 100 to 500 nM; in assay [2] (HTRF), 50 to 100 nM.

These data come from patent US9896445B2, “Heterocyclic inhibitors of ERK1 and ERK2 and their use in the treatment of cancer” (Asana Biosciences, LLC, priority 2015, dated 2018).
